Patent US20100016285A1, “HETEROCYCLIDENE-N-(ARYL) ACETAMIDE DERIVATIVE” (MOCHIDA PHARMACEUTICAL CO., LTD., priority 2007, published 2010)
Where two headings read alike, the source gives them in different places.

Assays:
human TRPV1 [1] = biological target: T1, human TRPV1 (Homo sapiens, UniProt Q8NER1); assay: Capsaicin-induced Ca influx in transformed CHO cells, FDSS-6000 (b-1), A2 value; format: cell-based; settings: concentration shifting the capsaicin concentration-reaction curve two times rightward; CHO cells expressing TRPV1
T1 construct: expressed in transfected cells; host or cells: CHO-K1 cells, pCAGGS vector, clones selected by limiting dilution
Description: (§1) (1) Measurement of Capsaicin-Induced Ca Influx in a Transformed CHO Cell Line Expressing Human TRPV1
(§2) (a) Establishment of a Transformed CHO Cell Line Expressing Human and Rat TRPV1
(§3) Human and rat vanilloid receptor 1 (hTRPV1 and rTRPV1) cDNA was cloned from human brain and rat dorsal root ganglion, respectively. The cloned TRPV1 cDNA was incorporated in a pCAGGS vector. The vector was introduced to a CHO-K1 cell line, thus performing transformation. Clones obtained by limiting dilution were stimulated with capsaicin. Clones with a high responsiveness were selected using an increase in the Ca concentration as an indicator. The selected clones were used for the following experiment.
(b-1) Measurement of Ca Influx using FDSS-6000
The transformed CHO cells expressing human or rat TRPV1 were seeded in a 96-well plate (with black walls and transparent bottoms, manufactured by Greiner) at a density of 40,000 cells per well. The cells were cultured at 37° C. in 5% CO2 atmosphere for one night. A loading solution of FLIPR Calcium 3 assay kit (manufactured by Molecular Devices Corporation) containing 2.5 mmol/L of probenecid was then added to each of the wells in the same amount as the culture medium, and the cells were cultured at 37° C. for 60 minutes. For three minutes after the cells were stimulated with capsaicin (1 nmol/L to 1 μmol/L), the change of the intracellular Ca concentration was measured using FDSS-6000 (λex: 480 nm, λem: […], manufactured by Hamamatsu Photonics K.K.). The integrated values of the increase rate of the intracellular Ca concentration were calculated for a group treated with the compounds of the present invention and a group treated with a vehicle, thus allowing capsaicin concentration-reaction curves to be obtained. A concentration (A2 value) of each of the compounds of the present invention, at which the capsaicin concentration-reaction curve obtained when the cells were treated with the vehicle was shifted two times rightward, was calculated. The inhibitory effects of the test compounds were compared using this value as an indicator.

[2] = Effects on rectal temperature (8-1), oral administration to rats; format: in vivo, rat; settings: oral single doses of 3, 10 and 30 mg/kg; 30, 60 and 120 minutes; maximum absolute difference vs vehicle
Procedure: (8-1) Effects on Rectal Temperature
A test compound was orally administered to rats at single doses of 3, 10 and 30 mg/kg. Then rectal temperature was measured 30, 60 and 120 minutes after administration.
Differences of the mean value between a group treated with test substance and a vehicle-treated group were calculated at all measuring points and, based on the maximum absolute value of differences, changes in rectal temperature were divided into the following three categories:
−: the maximum value was less than 0.5 degree Celsius +: the maximum value was more than 0.5 degree but less than 1.0 degree Celsius ++: the maximum value was more than 1.0 degree Celsius

[3] = cited from earlier work
human TRPV1 [4] = biological target: T1, human TRPV1; assay: Capsaicin (10 nmol/L)-induced Ca influx in transformed CHO cells, FDSS-6000 (b-2), IC50; format: cell-based
Description: as §1, §2, §3
(b-2) Measurement of Ca Influx using FDSS-6000
The transformed CHO cells expressing human or rat TRPV1 were inoculated in a 96-well plate (with black walls and transparent bottoms, manufactured by Greiner) at a density of 40,000 cells per well. The cells were cultured at 37° C. in 5% CO2 atmosphere for one night. A loading solution of FLIPR Calcium 3 assay kit (manufactured by Molecular Devices Corporation) containing 2.5 mmol/L of probenecid was then added to each of the wells in the same amount as the culture medium, and the cells were cultured at 37° C. for 60 minutes. For three minutes after the cells were stimulated with capsaicin (10 nmol/L), the change of the intracellular Ca concentration was measured using FDSS-6000 (λex: 480 nm, λem: 540 nm, manufactured by Hamamatsu Photonics K.K.). The integrated values of the increase rate of the intracellular Ca concentration were calculated for a group treated with the compounds of the present invention and a group treated with a vehicle. Then, the concentration of the compound of the present invention was calculated that inhibits 50% of the intracellular Ca concentration increase induced by capsaicin (IC50). Using this value as the index, inhibitory effects of the test compounds were compared. In addition, when IC50 value in human TRPV1 was less than 100 nmol/L, it was shown as A in Table 1C.

T1 sequence (Q8NER1 whole entry): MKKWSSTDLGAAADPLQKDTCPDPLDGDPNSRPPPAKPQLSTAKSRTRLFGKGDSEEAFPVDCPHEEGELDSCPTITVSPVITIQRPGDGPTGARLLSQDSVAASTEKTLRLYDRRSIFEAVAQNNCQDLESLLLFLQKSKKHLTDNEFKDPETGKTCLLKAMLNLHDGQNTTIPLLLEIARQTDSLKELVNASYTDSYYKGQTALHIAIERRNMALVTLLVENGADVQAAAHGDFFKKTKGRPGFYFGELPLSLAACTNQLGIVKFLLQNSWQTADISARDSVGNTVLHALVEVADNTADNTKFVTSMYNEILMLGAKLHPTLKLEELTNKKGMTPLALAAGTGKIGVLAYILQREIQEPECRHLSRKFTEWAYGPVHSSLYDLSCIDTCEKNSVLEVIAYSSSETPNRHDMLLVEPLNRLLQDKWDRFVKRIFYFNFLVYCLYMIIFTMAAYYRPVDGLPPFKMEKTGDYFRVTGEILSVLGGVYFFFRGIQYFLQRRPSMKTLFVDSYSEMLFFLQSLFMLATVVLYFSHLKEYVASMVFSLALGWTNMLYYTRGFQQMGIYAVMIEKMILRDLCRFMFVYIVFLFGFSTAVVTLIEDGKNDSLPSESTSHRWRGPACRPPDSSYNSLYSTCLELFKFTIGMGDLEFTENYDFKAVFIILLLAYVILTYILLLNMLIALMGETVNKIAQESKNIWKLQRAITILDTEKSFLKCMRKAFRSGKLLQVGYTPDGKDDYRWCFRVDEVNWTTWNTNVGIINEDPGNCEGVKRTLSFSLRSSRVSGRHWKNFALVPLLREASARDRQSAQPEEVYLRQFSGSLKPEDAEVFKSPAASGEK

Row | Structure (SMILES) | A2 value (human TRPV1 [1]) | IC50 (human TRPV1 [4]) | Change in rectal temperature in rats [2] | also measured
1 | O=C(Nc1ccc(C(F)(F)F)cn1)N1CCN(c2ncccc2C(F)(F)F)CC1 [Compound A, 4-(3-trifluoromethylpyridine-2-yl)-N-(5-trifuluoromethylpiridine-2-yl)-1-piperadinecarboxamide] | – | – | – | Change of rat rectal temperature ([3]; Oral, reference information (Non-Patent Document 4 or 5)): Increase^1); Change in rectal temperature in rats ([3]; from published information (Non-Patent Document 4 or 5)): increased^1)
2 | O=C(/C=C1\CCCOc2cc(C(F)(F)F)ccc21)Nc1ccc2c(c1)NC(=O)NC2 [EXAMPLE 13, (E)-2-(8-trifluoromethyl-3,4-dihydrobenzo[b]oxepin-5(2H)-ylidene)-N-(3,4-dihydro-1H-quinazolin-2-on-7-yl)acetamide] | A (A2 value of less than 100 nM) | – | − (the maximum value was less than 0.5 degree Celsius) | –
3 | O=C(/C=C1\CCCOc2cc(C(F)(F)F)ccc21)Nc1ccc2c(c1)NC(=O)N(CCO)C2 [EXAMPLE 15, (E)-2-(8-trifluoromethyl-3,4-dihydrobenzo[b]oxepin-5(2H)-ylidene)-N-(3-(2-hydroxyethyl)-3,4-dihydro-2(1H)-quinazolinon-7-yl)acetamide] | A (A2 value of less than 100 nM) | – | − (the maximum value was less than 0.5 degree Celsius) | –
4 | CC1(C)N/C(=C\C(=O)Nc2ccc3c(c2)NC(=O)CC3)c2ccc(C(F)(F)F)cc2O1 [EXAMPLE 26, (Z)-2-(6-trifluoromethyl-3,3-dimethyl-4-oxa-3,4-dihydroisoquinolin-1(2H)-ylidene)-N-(3,4-dihydroquinolin-2(1H)-on-7-yl)acetamide] | A (A2 value of less than 100 nM) | – | − (the maximum value was less than 0.5 degree Celsius) | –
5 | CN1C(=O)NCc2ccc(NC(=O)/C=C3\CCOc4cc(C(F)(F)F)ccc43)cc21 [Example 151, (E)-2-(7-trifluoromethyl-chroman-4-yliden)-N-(3,4-dihydro-1-methyl-2(1H)-quinazolinon-7-yl)acetamide] | – | – | − (the maximum value was less than 0.5 degree Celsius) | –
6 | CN1c2cc(NC(=O)/C=C3\CC4(CCC4)Oc4cc(C(F)(F)F)ccc43)ccc2CCS1(=O)=O [Example 200, (E)-2-(7-trifluoromethyl-spiro[chroman-2,1′-cyclobutane]-4-ylidene)-N-(3,4-dihydro-2,2-dioxo-1-methyl-1H-2,1-benzothiazin-7-yl)acetamide] | – | – | − (the maximum value was less than 0.5 degree Celsius) | –
7 | CCN1C(=O)NCc2c(NC(=O)/C=C3\CC(C)(C)Oc4cc(C(F)(F)F)ccc43)cccc21 [Example 309, (E)-2-(2,2-dimethyl-7-trifluoromethylchroman-4-ylidene)-N-(3,4-dihydro-1-ethyl-2(1H)-quinazolinone-5-yl)acetamide] | – | < 100 nM | – | –
8 | CCN1C(=O)NCc2c(NC(=O)/C=C3\CC4(CCOCC4)Oc4cc(C(F)(F)F)ccc43)cccc21 [Example 312, (E)-2-(7-trifluoromethyl-spiro[chroman-2,4′-tetrahydropyran]-4-ylidene)-N-(3,4-dihydro-1-ethyl-2(1H)-quinazolinone-5-yl)acetamide] | – | < 100 nM | – | –

Now from value to molecule, other results behind:

Row | A2 value (human TRPV1 [1]) | IC50 (human TRPV1 [4]) | Structure (SMILES) | Change in rectal temperature in rats [2] | also measured
9 | A (A2 value of less than 100 nM) | – | O=C(/C=C1\CCCOc2cc(C(F)(F)F)ccc21)Nc1ccc2c(c1)NC(=O)C(N1CCOCC1)C2 (single isomer, unassigned) [EXAMPLE 35, (E)-2-(8-trifluoromethyl-3,4-dihydrobenzo[b]oxepin-5(2H)-ylidene)-N-(3-(4-morpholinyl)-3,4-dihydro-2(1H)-quinolinon-7-yl)acetamide] | − (the maximum value was less than 0.5 degree Celsius) | –
10 | A (A2 value of less than 100 nM) | – | CC1(C)Nc2ccc(NC(=O)/C=C3\CCCOc4cc(C(F)(F)F)ccc43)cc2NC1=O [EXAMPLE 10, (E)-2-(8-trifluoromethyl-3,4-dihydrobenzo[b]oxepin-5(2H)-ylidene)-N-(3,3-dimethyl-3,4-dihydro-2(1H)-quinoxalinon-7-yl)acetamide] | + (the maximum value was more than 0.5 degree but less than 1.0 degree Celsius) | –
11 | A (A2 value of less than 100 nM) | – | O=C(/C=C1\CCOc2cc(C(F)(F)F)ccc21)Nc1ccc2c(c1)NC(=O)CC2 [EXAMPLE 23, (E)-2-(7-trifluoromethylchroman-4-ylidene)-N-(3,4-dihydroquinolin-2(1H)-on-7-yl)acetamide] | − (the maximum value was less than 0.5 degree Celsius) | –
12 | – | < 100 nM | CN1C(=O)NCc2c(NC(=O)/C=C3\CCCOc4cc(C(F)(F)F)ccc43)cccc21 [Example 302, (E)-2-(3,4-dihydro-8-trifluoromethyl-1-benzoxepin-5(2H)-ylidene)-N-(3,4-dihydro-1-methyl-2(1H)-quinazolinone-5-yl)acetamide] | – | –
13 | – | < 100 nM | CN1C(=O)NCc2c(NC(=O)/C=C3\CCOCc4cc(C(F)(F)F)ccc43)cccc21 [Example 303, (E)-2-(3,4-dihydro-8-trifluoromethyl-2-benzoxepin-5(1H)-ylidene)-N-(3,4-dihydro-1-methyl-2(1H)-quinazolinone-5-yl)acetamide] | – | –
14 | – | < 100 nM | CN1C(=O)NCc2c(NC(=O)/C=C3\CCOc4cc(C(F)(F)F)ccc43)cccc21 [Example 304, (E)-2-(7-trifluoromethylchroman-4-ylidene)-N-(3,4-dihydro-1-methyl-2(1H)-quinazolinone-5-yl)acetamide] | – | –
15 | – | < 100 nM | CCN1C(=O)NCc2c(NC(=O)/C=C3\CCCOc4cc(C(F)(F)F)ccc43)cccc21 [Example 306, (E)-2-(3,4-dihydro-B-trifluoromethyl-1-benzoxepin-5(2H)-ylidene)-N-(3,4-dihydro-1-ethyl-2(1H)-quinazolinone-5-yl)acetamide] | – | –
16 | – | < 100 nM | CCN1C(=O)NCc2c(NC(=O)/C=C3\CCOCc4cc(C(F)(F)F)ccc43)cccc21 [Example 307, (E)-2-(3,4-dihydro-8-trifluoromethyl-2-benzoxepin-5(1H)-ylidene)-N-(3,4-dihydro-1-ethyl-2(1H)-quinazolinone-5-yl)acetamide] | – | –
17 | – | < 100 nM | CCN1C(=O)NCc2c(NC(=O)/C=C3\CCOc4cc(C(F)(F)F)ccc43)cccc21 [Example 308, (E)-2-(7-trifluoromethylchroman-4-ylidene)-N-(3,4-dihydro-1-ethyl-2(1H)-quinazolinone-5-yl)acetamide] | – | –
18 | – | < 100 nM | CCN1C(=O)NCc2c(NC(=O)/C=C3\CC(CC)(CC)Oc4cc(C(F)(F)F)ccc43)cccc21 [Example 310, (E)-2-(2,2-diethyl-7-trifluoromethylchroman-4-ylidene)-N-(3,4-dihydro-1-ethyl-2(1H)-quinazolinone-5-yl)acetamide] | – | –
19 | – | < 100 nM | CCN1C(=O)NCc2c(NC(=O)/C=C3\CC(COC)(COC)Oc4cc(C(F)(F)F)ccc43)cccc21 [Example 311, (E)-2-(2,2-bis(methoxymethyl)-7-trifluoromethylchroman-4-ylidene)-N-(3,4-dihydro-1-ethyl-2(1H)-quinazolinone-5-yl)acetamide] | – | –
20 | – | < 100 nM | CN1C(=O)NCc2c(NC(=O)/C=C3\NC(C)(C)Oc4cc(C(F)(F)F)ccc43)cccc21 [Example 313, (Z)-2-(2,3-dihydro-2,2-dimethyl-7-trifluoromethyl-4H-1,3-benzoxazin-4-ylidene)-N-(3,4-dihydro-1-methyl-2(1H)-quinazolinone-5-yl)acetamide] | – | –
